Several values for one entry are separate records, joined by “and”; a condition that tells them apart may be missing. Equal values may be shown once. Read-outs that look alike come from different tables or passages of the source.
Assay: In vivo pharmacokinetics, plasma LC-MS/MS
Protocol: Pharmacokinetic and cytochrome P450 inhibition studies. Studies were performed with the assistance of Touchstone Biosciences (Plymouth Meeting, Pennsylvania). For pharmacokinetic bioanalysis, male CD-1 mice were fasted overnight before being dosed with M1i-124 via oral gavage (20mg/kg), intraperitoneal injection in the lower right quadrant of the abdomen (20 mg/kg), or intravenous tail vein injection (5 mg/kg). All blood samples were taken via tail vein at 5, 15, and 30 minutes, and 1, 2, 4, 6, 8, and 24 hours after compound administration. The plasma concentration of the compound was determined using LC-MS/MS analysis. […]

O=S(=O)(NCc1ccc2c(c1)OCO2)c1ccc(Cc2ccc(S(=O)(=O)NCc3ccc4c(c3)OCO4)cc2)cc1 [M1i-124]
Plasma concentration (IP) (IP, 0.083 hours): 658 ng/mL and 561 ng/mL | Plasma concentration (IP) (IP, 0.25 hours): 720 ng/mL and 607 ng/mL | Plasma concentration (IP) (IP, 0.5 hours): 775 ng/mL and 671 ng/mL | Plasma concentration (IP) (IP, 1 hours): 437 ng/mL and 307 ng/mL | Plasma concentration (IP) (IP, 2 hours): 242 ng/mL and 173 ng/mL | Plasma concentration (IP) (IP, 4 hours): 110 ng/mL and 86.5 ng/mL | Plasma concentration (IP) (IP, 6 hours): 59.4 ng/mL | Plasma concentration (IP) (IP, 8 hours): 38.1 ng/mL and 35.4 ng/mL | Plasma concentration (IP) (IP, 24 hours): 7.87 ng/mL | Plasma concentration (IV) (IV, 0.083 hours): 2080 ng/mL and 1440 ng/mL | Plasma concentration (IV) (IV, 0.25 hours): 1320 ng/mL and 1020 ng/mL | Plasma concentration (IV) (IV, 0.5 hours): 302 ng/mL | Plasma concentration (IV) (IV, 1 hours): 115 ng/mL and 152 ng/mL | Plasma concentration (IV) (IV, 2 hours): 30.6 ng/mL and 29 ng/mL | Plasma concentration (IV) (IV, 4 hours): 16.3 ng/mL | Plasma concentration (IV) (IV, 6 hours): 12.7 ng/mL and 16.3 ng/mL | Plasma concentration (IV) (IV, 8 hours): 12.6 ng/mL | Plasma concentration (IV) (IV, 24 hours): 2.97 ng/mL and 3.88 ng/mL | Plasma concentration (PO) (PO, 0.083 hours): 306 ng/mL and 267 ng/mL | Plasma concentration (PO) (PO, 0.25 hours): 56.5 ng/mL and 86.1 ng/mL | Plasma concentration (PO) (PO, 0.5 hours): 57.2 ng/mL | Plasma concentration (PO) (PO, 1 hours): 25.9 ng/mL and 21.8 ng/mL | Plasma concentration (PO) (PO, 2 hours): 14.7 ng/mL and 15.7 ng/mL | Plasma concentration (PO) (PO, 4 hours): 13.1 ng/mL | Plasma concentration (PO) (PO, 6 hours): 9.73 ng/mL and 11.5 ng/mL | Plasma concentration (PO) (PO, 8 hours): 8.44 ng/mL and 9.62 ng/mL | Plasma concentration (PO) (PO, 24 hours): 2.39 ng/mL and 2.74 ng/mL | concentration at 6 h (male, CD-1, mouse, in vivo, ip, 20 mg/kg, IP, 6 hours, read-out: Plasma concentration (IP)): 54.8 ng/mL | concentration at 24 h (male, CD-1, mouse, in vivo, ip, 20 mg/kg, IP, 24 hours, read-out: Plasma concentration (IP)): 7.17 ng/mL | concentration at 0.5 h (male, CD-1, mouse, in vivo, iv, 5 mg/kg, IV, 0.5 hours, read-out: Plasma concentration (IV)): 412 ng/mL | concentration at 4 h (male, CD-1, mouse, in vivo, iv, 5 mg/kg, IV, 4 hours, read-out: Plasma concentration (IV)): 20.4 ng/mL | concentration at 8 h (male, CD-1, mouse, in vivo, iv, 5 mg/kg, IV, 8 hours, read-out: Plasma concentration (IV)): 10.9 ng/mL | concentration at 0.5 h (male, CD-1, mouse, in vivo, po, 20 mg/kg, PO, 0.5 hours, read-out: Plasma concentration (PO)): 42.6 ng/mL | concentration at 4 h (male, CD-1, mouse, in vivo, po, 20 mg/kg, PO, 4 hours, read-out: Plasma concentration (PO)): 15.4 ng/mL | concentration at 0.083 h (male, CD-1, mouse, plasma, ip, 20 mg/kg, IP, 0.083 hours, read-out: Plasma concentration (IP)): 451 ng/mL | concentration at 0.25 h (male, CD-1, mouse, plasma, ip, 20 mg/kg, IP, 0.25 hours, read-out: Plasma concentration (IP)): 509 ng/mL | concentration at 0.5 h (male, CD-1, mouse, plasma, ip, 20 mg/kg, IP, 0.5 hours, read-out: Plasma concentration (IP)): 596 ng/mL | concentration at 1 h (male, CD-1, mouse, plasma, ip, 20 mg/kg, IP, 1 hours, read-out: Plasma concentration (IP)): 349 ng/mL | concentration at 2 h (male, CD-1, mouse, plasma, ip, 20 mg/kg, IP, 2 hours, read-out: Plasma concentration (IP)): 259 ng/mL | concentration at 4 h (male, CD-1, mouse, plasma, ip, 20 mg/kg, IP, 4 hours, read-out: Plasma concentration (IP)): 126 ng/mL | concentration at 6 h (male, CD-1, mouse, plasma, ip, 20 mg/kg, IP, 6 hours, read-out: Plasma concentration (IP)): 75.3 ng/mL | concentration at 8 h (male, CD-1, mouse, plasma, ip, 20 mg/kg, IP, 8 hours, read-out: Plasma concentration (IP)): 53.2 ng/mL | concentration at 24 h (male, CD-1, mouse, plasma, ip, 20 mg/kg, IP, 24 hours, read-out: Plasma concentration (IP)): 9.14 ng/mL
